Tests used:
[1] = tested on: ALK2 (Alk2p, cytochrome P450 CYP52); assay: In vitro enzymatic assay: conversion of radiolabeled fatty acids by microsomes of S. cerevisiae WAT11 expressing ALK2 (TLC); conditions: yeast microsomes, NADPH; for Degree of conversion (%): gene ALK2, substrate 100 μM, ND: not detectable
Method: (§1) In order to confirm their hypotheses according to which these enzymes catalyze fatty acids by oxygenation reaction, the inventors performed a screening using microsomes of S. cerevisiae WAT11 yeast transformed with 6 of the genes of the CYP52 family, cloned into Yarrowia lipolytica: ALK2, ALK3, ALK4, ALK5, ALK6 and ALK11.
(§2) The incubations were carried out on the model substrate constituted by lauric acid (C12.0), in the presence of NADPH.
(§3) The reaction mixtures were deposited on TLC plates, and then developed and analyzed.
(§4) In order to study the substrate specificity of these enzymes, the inventors incubated each microsomal preparation with free fatty acids of different size and at various levels of unsaturation (for example, myristic acid—C14:0, palmitic acid—C16:0, stearic acid—C18:0, oleic acid—C18:1 and linoleic acid—C18:2).
(§5) The expression of the proteins of the 6 members of the 6YP52 family cloned was carried out using a heterologous system specifically designed for the expression of cytochrome P450 enzymes, based on the pYeDP60 vector and the Saccharomyces cerevisiae WAT11 strain. The WAT11 strain was transformed with each of the pYeDP60 constructs using the lithium acetate LiAc method. The transformants were selected by plating out on YNB plates lacking uracil. The yeasts are left in culture and the expression of cytochrome P450 was induced as described in Pompon et al., 1996. For each transformant, the microsomes were prepared by manually breaking the cells using glass beads (0.45 mm in diameter) in 50 mM of a Tris-HCl buffer (pH 7.5) containing 1 mM EDTA and 600 mM of sorbitol. The homogenate was subjected to centrifugation (10 000 g-15 min) and the resulting supernatant was subjected to ultracentrifugation (100 000 g-1 h). The microsome pellet was resuspended in 50 mM Tris-HCl (pH 7.4), mM EDTA and 30% (v/v) of glycerol with a Potter-Elvehjem homogenizer. The volume of buffer used for resuspending the microsomes was determined by the approximate weight of the wet pellet of yeast obtained after growth (1 ml of buffer per 2 g of cell pellet). The total concentrations of protein in the microsomes were estimated using the Bradford test and homogenized at 15 mg/ml using the appropriate volume of resuspension buffer. The microsome preparation was stored at −20° C. All the experiments for the microsome preparations were carried out between 0 and 4° C.
(§6) The activity of the cytochrome P450 enzymes was evaluated in vitro using various radiolabeled fatty acids. The standard test (0.1 ml) contained […] sodium phosphate (pH 7.4), […] NADPH, a radiolabeled substrate (100 μM) and 0.15 mg of microsomal protein. The reactions were carried out in a waterbath at 27° C. with continuous shaking. The reaction is initiated by adding NADPH and stopped after 20 min by adding 20 μl of acetonitrile containing 0.2% of acetic acid.
The reaction mixtures were deposited directly on TLC plates covered with silica in order to separate the incubation products from the initial substrate. The plates were developed using an ether/petroleum ether/formic acid mixture (50:50:1, v/v/v). The plates were scanned using a radioactivity detector. The chromatograms resulting from the TLC make it possible to determine the degrees of conversion for each cytochrome P450/fatty acid combination, based on the radioactivity detected by the reader. […]

[2] = tested on: ALK3 (Alk3p, cytochrome P450 CYP52); assay: In vitro enzymatic assay: conversion of radiolabeled fatty acids by microsomes of S. cerevisiae WAT11 expressing ALK3 (TLC, GC-MS); conditions: NADPH; for Products of conversion by Alk3p seen in TLC chromatograms: fresh microsomes, standardized total protein, duplicate; for Degree of conversion (%): gene ALK3, substrate 100 μM, ND: not detectable; for Reaction product of Alk3p identified by GC-MS (first product peak) / Reaction product of Alk3p identified by GC-MS (second peak, diacid): incubation with Alk3p microsomes, GC-MS of methylated/TMS derivatives
Method: as §1, §2, §3, §4
Preparations of fresh microsomes of yeast expressing Alk3p were carried out. The inventors standardized the total protein content and performed new incubations with lauric acid and palmitic acid and also the abovementioned three C18 fatty acids (stearic acid, oleic acid and linoleic acid). All the reactions were carried out in duplicate in the presence of NADPH for analysis by TLC and GC-MS.
as §5, §6
The reaction mixtures were deposited directly on TLC plates covered with silica in order to separate the incubation products from the initial substrate. The plates were developed using an ether/petroleum ether/formic acid mixture (50:50:1, v/v/v). The plates were scanned using a radioactivity detector.

[3] = tested on: ALK5 (Alk5p, cytochrome P450 CYP52); assay: In vitro enzymatic assay: conversion of radiolabeled fatty acids by microsomes of S. cerevisiae WAT11 expressing ALK5 (TLC); conditions: yeast microsomes, NADPH; for Degree of conversion (%): gene ALK5, substrate 100 μM, ND: not detectable
Method: as §1, §2, §3, §4, §5, §6
The reaction mixtures were deposited directly on TLC plates covered with silica in order to separate the incubation products from the initial substrate. The plates were developed using an ether/petroleum ether/formic acid mixture (50:50:1, v/v/v). The plates were scanned using a radioactivity detector. The chromatograms resulting from the TLC make it possible to determine the degrees of conversion for each cytochrome P450/fatty acid combination, based on the radioactivity detected by the reader. The mobility of the products on the TLC plate is a good indication of the type of oxygenation reaction that was carried out on the substrate (i.e. hydroxylation, epoxidation, diacid formation).

[4] = tested on: ALK11 (Alk11p, cytochrome P450 CYP52); assay: In vitro enzymatic assay: conversion of radiolabeled fatty acids by microsomes of S. cerevisiae WAT11 expressing ALK11 (TLC); conditions: yeast microsomes, NADPH; for Degree of conversion (%): gene ALK11, substrate 100 μM, ND: not detectable
Method: as §1, §2, §3, §4
as §5, with “The microsome preparation was stored at −20° C. All the experiments for the microsome preparations were carried out between 0 and 4° C.” left out
(§7) The activity of the cytochrome P450 enzymes was evaluated in vitro using various radiolabeled fatty acids. […]
The reaction mixtures were deposited directly on TLC plates covered with silica in order to separate the incubation products from the initial substrate. […] The plates were scanned using a radioactivity detector. The chromatograms resulting from the TLC make it possible to determine the degrees of conversion for each cytochrome P450/fatty acid combination, based on the radioactivity detected by the reader. […]

[5] = tested on: ALK4 (Alk4p, cytochrome P450 CYP52); assay: In vitro enzymatic assay: conversion of radiolabeled fatty acids by microsomes of S. cerevisiae WAT11 expressing ALK4 (TLC); conditions: gene ALK4, substrate 100 μM, yeast microsomes, NADPH, ND: not detectable
Method: as §1, §2
The reaction mixtures were deposited on TLC plates, and then developed and analyzed. […]
The expression of the proteins of the 6 members of the 6YP52 family cloned was carried out using a heterologous system specifically designed for the expression of cytochrome P450 enzymes, based on the pYeDP60 vector and the Saccharomyces cerevisiae WAT11 strain. […] The volume of buffer used for resuspending the microsomes was determined by the approximate weight of the wet pellet of yeast obtained after growth (1 ml of buffer per 2 g of cell pellet). […]
as §7
The reaction mixtures were deposited directly on TLC plates covered with silica in order to separate the incubation products from the initial substrate. […] The plates were scanned using a radioactivity detector. […]

Question: For CCCCCCCCCCCC(=O)O [C12:0, lauric acid], which “Degree of conversion (%)” value [1] is on record?
Answer: 7.3%

Question: What about the “Conversion of the fatty acid by Alk2p, in words” value [1] of the same compound?
Answer: capable of metabolizing

Question: And the “Products of conversion by Alk3p seen in TLC chromatograms” value (shortened to “Products of conversion by Alk3p seen”) ([2]; TLC)?
Answer: two products

Question: What about the “Degree of conversion (%)” value ([2]; yeast microsomes, TLC) of the same compound?
Answer: 65%

Question: What about the “Reaction product of Alk3p identified by GC-MS (first product peak)” value (from here on “Reaction product … (first product peak)”) [2] of the same compound?
Answer: 12-hydroxylauric acid derivative

Question: And the “Conversion of the fatty acid by Alk3p, in words” value ([2]; yeast microsomes, TLC)?
Answer: capable of metabolizing

Question: What about the “Degree of conversion (%)” value [3] of the same compound?
Answer: 24%

Question: And the “Conversion of the fatty acid by Alk5p, in words” value [3]?
Answer: capable of metabolizing

Question: And the “Degree of conversion (%)” value [4]?
Answer: Traces

Question: And the “Conversion of the fatty acid by Alk11p, in words” value [4]?
Answer: capable of metabolizing

Question: For CCCCCCCCCCCCCC(=O)O [C14:0, myristic acid], which “Degree of conversion (%)” value [1] is on record?
Answer: 1.1%

Question: What about the “Degree of conversion (%)” value ([2]; yeast microsomes, TLC) of the same compound?
Answer: 68%

Question: What about the “Degree of conversion (%)” value [3] of the same compound?
Answer: 27%

Question: What does the source list for CCCCCCCCCCCCCCCC(=O)O [C16:0, palmitic acid]?
Answer: Degree of conversion (%) [1]: 0.5%; Degree of conversion (%) [3]: 12%

Question: Which “Conversion of the fatty acid by Alk2p, in words” value [1] does the source give for CCCCCCCCCCCCCCCCCC(=O)O [C18:0, stearic acid] here?
Answer: No significant conversion

Question: And the “Products of conversion by Alk3p seen” value ([2]; TLC)?
Answer: only an w-oxidation product

Question: And the “Degree of conversion (%)” value ([2]; yeast microsomes, TLC)?
Answer: 3%

Question: And the “Reaction product … (first product peak)” value [2]?
Answer: 18-hydroxystearic acid derivative

Question: What about the “Degree of conversion (%)” value [3] of the same compound?
Answer: 2%

Question: For CCCCCCCC/C=C\CCCCCCCC(=O)O [C18:1, oleic acid], which “Products of conversion by Alk3p seen” value ([2]; TLC) is on record?
Answer: two products

Question: What about the “Degree of conversion (%)” value ([2]; yeast microsomes, TLC) of the same compound?
Answer: 27%

Question: And the “Reaction product … (first product peak)” value [2]?
Answer: 18-hydroxyoleic acid derivative

Question: And the “Reaction product of Alk3p identified by GC-MS (second peak, diacid)” value [2]?
Answer: 1,18-octadeca-9-enedioic acid

Question: And the “Degree of conversion (%)” value [3]?
Answer: 13%

Question: And the “Degree of conversion (%)” value [4]?
Answer: 2%

Question: CCCCC/C=C\C/C=C\CCCCCCCC(=O)O [C18:2, linoleic acid] was tested. Which “Products of conversion by Alk3p seen” value ([2]; TLC) did it give?
Answer: two products

Question: What about the “Degree of conversion (%)” value ([2]; yeast microsomes, TLC) of the same compound?
Answer: 35%

Question: And the “Reaction product … (first product peak)” value [2]?
Answer: 18-hydroxylinoleic acid derivative

Question: And the “Reaction product of Alk3p identified by GC-MS (second peak, diacid)” value [2]?
Answer: 1,18-octadeca-9,12-dienedioic derivative

Question: And the “Degree of conversion (%)” value [5]?
Answer: 3%

Question: And the “Degree of conversion (%)” value [3]?
Answer: 11%

Question: What about the “Degree of conversion (%)” value [4] of the same compound?
Answer: 4%

— patent US20180363011A1, “MICROORGANISMS AND USE THEREOF FOR THE PRODUCTION OF DIACIDS” (FONDS DE DEVELOPPEMENT DES FILIERES DES OLEAGINEUX ET DES …, priority 2015, published 2018)
